# In US20230123334A1, “AMINO LIPID COMPOUND, PREPARATION METHOD THEREFOR, AND APPLICATION THEREOF” (SHENZHEN SHENXIN BIOTECHNOLOGY CO., LTD., priority 2020, published 2023):
# Key:
# HEK293 cells [1] = assay: Preliminary screening as mRNA vectors, EGFP mRNA transfection of HEK293 cells; type: cell-based; conditions: 96-well plates, EGFP mRNA 50 ng per well, percentage of GFP fluorescent cells relative to total number of cells (Hoechst)
# Procedure, shortened: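 Screening format: EGFP mRNA transfection (50 ng/well) into HEK293 in 10% FBS-supplemented DMEM. Percent green fluorescent cells, normalised to Hoechst nuclear count, gave the value; Lipofectamine2000 was the reference transfectant.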
# HEK293 cells [2] = assay: Preliminary screening as DNA vectors, GFP transfection of HEK293 cells; type: cell-based; conditions: HEK293 cells; lipid/DOPE liposome with 75 ng plasmid DNA (psin-EGFP-IRES-Puro); number of cells expressing GFP divided by total number of nuclei (Hoechst)
# Procedure, shortened: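 First, amino lipid and DOPE were vortexed in sodium acetate buffer (pH 5.6) to form liposomes. Next, these were held with 75 ng EGFP plasmid at room temperature for 30 min. Finally, HEK293 cells were added, cultured at 37° C., Hoechst-stained, and GFP+/total nuclei scored by imaging.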
Structure (SMILES),Absolute mRNA transfection efficiency in HEK293 cells (HEK293 cells [1]; HEK293 cells) [%],Absolute DNA transfection efficiency in HEK293 cells (HEK293 cells [2]) [%],Absolute mRNA transfection efficiency in HEK293 cells (HEK293 cells [1]) [%]
CCCCCCCCCCCCN(CCCCCCCCCCCC)c1nc(NCCN(C)C)nc(N(CCCCCCCCCCCC)CCCCCCCCCCCC)n1 [2N12^2N12D1],0.1,0.4,
CCCCCCCCCCCCN(CCCCCCCCCCCC)c1nc(NCCN2CCOCC2)nc(N(CCCCCCCCCCCC)CCCCCCCCCCCC)n1 [2N12^2N12D2],1.9,0.0,
CCCCCCCCCCCCN(CCCCCCCCCCCC)c1nc(NCCN2CCCC2)nc(N(CCCCCCCCCCCC)CCCCCCCCCCCC)n1 [2N12^2N12D3],0.0,1.3,
CCCCCCCCCCCCN(CCCCCCCCCCCC)c1nc(NCCN2CCCCC2)nc(N(CCCCCCCCCCCC)CCCCCCCCCCCC)n1 [2N12^2N12D4],2.6,0.0,
CCCCCCCCCCCCN(CCCCCCCCCCCC)c1nc(NCCN2CCN(C)CC2)nc(N(CCCCCCCCCCCC)CCCCCCCCCCCC)n1 [2N12^2N12D5],2.7,0.0,
CCCCCCCCCCCCN(CCCCCCCCCCCC)c1nc(NCCCN(C)C)nc(N(CCCCCCCCCCCC)CCCCCCCCCCCC)n1 [2N12^2N12D6],0.2,0.0,
CCCCCCCCCCCCN(CCCCCCCCCCCC)c1nc(NCCN(CC)CC)nc(N(CCCCCCCCCCCC)CCCCCCCCCCCC)n1 [2N12^2N12D7],0.3,0.0,
CCCCCCCCCCCCN(CCCCCCCCCCCC)c1nc(NCCCN2CCOCC2)nc(N(CCCCCCCCCCCC)CCCCCCCCCCCC)n1 [2N12^2N12D8],0.0,0.1,
CCCCCCCCCCCCN(CCCCCCCCCCCC)c1nc(NCCCN2CCN(C)CC2)nc(N(CCCCCCCCCCCC)CCCCCCCCCCCC)n1 [2N12^2N12D9],0.0,0.2,
CCCCCCCCCCCCN(CCCCCCCCCCCC)c1nc(NCC2CCN(C)CC2)nc(N(CCCCCCCCCCCC)CCCCCCCCCCCC)n1 [2N12^2N12D10],3.3,1.8,
CCCCCCNc1nc(NCCCCCC)nc(NCCN(C)C)n1 [Compound N6N6D1],0.0,0.0,
CCCCCCNc1nc(NCCCCCC)nc(NCCN2CCOCC2)n1 [Compound N6N6D2],0.0,0.0,
CCCCCCNc1nc(NCCCCCC)nc(NCCN2CCCC2)n1 [Compound N6N6D3],0.3,0.2,
CCCCCCNc1nc(NCCCCCC)nc(NCCN2CCCCC2)n1 [Compound N6N6D4],0.1,0.0,
CCCCCCNc1nc(NCCCCCC)nc(NCCN2CCN(C)CC2)n1 [Compound N6N6D5],0.0,0.0,
CCCCCCNc1nc(NCCCCCC)nc(NCCCN(C)C)n1 [Compound N6N6D6],0.0,0.0,
CCCCCCNc1nc(NCCCCCC)nc(NCCN(CC)CC)n1 [Compound N6N6D7],0.0,0.0,
CCCCCCNc1nc(NCCCCCC)nc(NCCCN2CCOCC2)n1 [Compound N6N6D8],0.0,0.0,
CCCCCCNc1nc(NCCCCCC)nc(NCCCN2CCN(C)CC2)n1 [Compound N6N6D9],0.2,0.0,
CCCCCCNc1nc(NCCCCCC)nc(NCC2CCN(C)CC2)n1 [Compound N6N6D10],0.0,0.0,
CCCCCCCNc1nc(NCCCCCC)nc(NCCN(C)C)n1 [Compound N6N7D1],0.1,0.0,
CCCCCCCNc1nc(NCCCCCC)nc(NCCN2CCOCC2)n1 [Compound N6N7D2],0.4,0.0,
CCCCCCCNc1nc(NCCCCCC)nc(NCCN2CCCC2)n1 [Compound N6N7D3],0.0,0.4,
CCCCCCCNc1nc(NCCCCCC)nc(NCCN2CCCCC2)n1 [Compound N6N7D4],0.0,0.0,
CCCCCCCNc1nc(NCCCCCC)nc(NCCN2CCN(C)CC2)n1 [Compound N6N7D5],0.4,0.0,

Structure (SMILES),Absolute mRNA transfection efficiency in HEK293 cells (HEK293 cells [1]; HEK293 cells) [%],Absolute DNA transfection efficiency in HEK293 cells (HEK293 cells [2]) [%],Absolute mRNA transfection efficiency in HEK293 cells (HEK293 cells [1]) [%]
CCCCCCCNc1nc(NCCCCCC)nc(NCCCN(C)C)n1 [Compound N6N7D6],0.1,0.0,
CCCCCCCNc1nc(NCCCCCC)nc(NCCN(CC)CC)n1 [Compound N6N7D7],0.0,0.0,
CCCCCCCNc1nc(NCCCCCC)nc(NCCCN2CCOCC2)n1 [Compound N6N7D8],0.0,0.0,
CCCCCCCNc1nc(NCCCCCC)nc(NCCCN2CCN(C)CC2)n1 [Compound N6N7D9],0.0,0.0,
CCCCCCCNc1nc(NCCCCCC)nc(NCC2CCN(C)CC2)n1 [Compound N6N7D10],0.0,0.0,
CCCCCCCCNc1nc(NCCCCCC)nc(NCCN(C)C)n1 [Compound N6N8D1],0.0,0.0,
CCCCCCCCNc1nc(NCCCCCC)nc(NCCN2CCOCC2)n1 [Compound N6N8D2],0.1,0.0,
CCCCCCCCNc1nc(NCCCCCC)nc(NCCN2CCCC2)n1 [Compound N6N8D3],0.4,0.1,
CCCCCCCCNc1nc(NCCCCCC)nc(NCCN2CCCCC2)n1 [Compound N6N8D4],0.0,0.0,
CCCCCCCCNc1nc(NCCCCCC)nc(NCCN2CCN(C)CC2)n1 [Compound N6N8D5],0.0,0.0,
CCCCCCCCNc1nc(NCCCCCC)nc(NCCCN(C)C)n1 [Compound N6N8D6],0.0,0.1,
CCCCCCCCNc1nc(NCCCCCC)nc(NCCN(CC)CC)n1 [Compound N6N8D7],0.1,0.0,
CCCCCCCCNc1nc(NCCCCCC)nc(NCCCN2CCOCC2)n1 [Compound N6N8D8],0.0,0.0,
CCCCCCCCNc1nc(NCCCCCC)nc(NCCCN2CCN(C)CC2)n1 [Compound N6N8D9],0.0,0.0,
CCCCCCCCNc1nc(NCCCCCC)nc(NCC2CCN(C)CC2)n1 [Compound N6N8D10],0.0,0.0,
CCCCCCCCCCCCN(CCCCCCCCCCCC)c1nc(NCC2CCN(C)CC2)nc(SCCCCCCC)n1 [D10S7^2N12],,,1.4
CCCCCCCCCCCCN(CCCCCCCCCCCC)c1nc(NCC2CCN(C)CC2)nc(SCCCCCCCC)n1 [D10S8^2N12],,,1.5
CCCCCCCCCCCCN(CCCCCCCCCCCC)c1nc(NCC2CCN(C)CC2)nc(SCCCCCCCCC)n1 [D10S9^2N12],,,7.7
CCCCCCCCCCCCN(CCCCCCCCCCCC)c1nc(NCC2CCN(C)CC2)nc(SCCCCCCCCCC)n1 [D10S10^2N12],,,0.2
CCCCCCCCCCCCN(CCCCCCCCCCCC)c1nc(NCC2CCN(C)CC2)nc(SCCCCCCCCCCC)n1 [D10S11^2N12],,,0.0
CCCCCCCCCCCCSc1nc(NCC2CCN(C)CC2)nc(N(CCCCCCCCCCCC)CCCCCCCCCCCC)n1 [D10S12^2N12],,,3.4
CCCCCCCCCCCCCCSc1nc(NCC2CCN(C)CC2)nc(N(CCCCCCCCCCCC)CCCCCCCCCCCC)n1 [D10S14^2N12],,,0.2
CCCCCCCCCCCCCCCSc1nc(NCC2CCN(C)CC2)nc(N(CCCCCCCCCCCC)CCCCCCCCCCCC)n1 [D10S15^2N12],,,14.3
CCCCCCCCCCCCCCCCSc1nc(NCC2CCN(C)CC2)nc(N(CCCCCCCCCCCC)CCCCCCCCCCCC)n1 [D10S16^2N12],,,0.2
CCCCCCCCCCCCCCCCCCSc1nc(NCC2CCN(C)CC2)nc(N(CCCCCCCCCCCC)CCCCCCCCCCCC)n1 [D10S18^2N12],,,0.0
